According to US20260272895A1, “METHODS AND KITS FOR DELIVERY OF COMPOUNDS INTO CELLS” (Yale University, priority 2023, published 2026):

What was measured:
SLCO1A2 [1] = target: T1, SLCO1A2 (Homo sapiens, UniProt P46721); assay: Compound uptake in HEK293 cells transfected with SLCO1A2; assay type: cell-based; design: FLAG
T1 sequence (P46721 1-670): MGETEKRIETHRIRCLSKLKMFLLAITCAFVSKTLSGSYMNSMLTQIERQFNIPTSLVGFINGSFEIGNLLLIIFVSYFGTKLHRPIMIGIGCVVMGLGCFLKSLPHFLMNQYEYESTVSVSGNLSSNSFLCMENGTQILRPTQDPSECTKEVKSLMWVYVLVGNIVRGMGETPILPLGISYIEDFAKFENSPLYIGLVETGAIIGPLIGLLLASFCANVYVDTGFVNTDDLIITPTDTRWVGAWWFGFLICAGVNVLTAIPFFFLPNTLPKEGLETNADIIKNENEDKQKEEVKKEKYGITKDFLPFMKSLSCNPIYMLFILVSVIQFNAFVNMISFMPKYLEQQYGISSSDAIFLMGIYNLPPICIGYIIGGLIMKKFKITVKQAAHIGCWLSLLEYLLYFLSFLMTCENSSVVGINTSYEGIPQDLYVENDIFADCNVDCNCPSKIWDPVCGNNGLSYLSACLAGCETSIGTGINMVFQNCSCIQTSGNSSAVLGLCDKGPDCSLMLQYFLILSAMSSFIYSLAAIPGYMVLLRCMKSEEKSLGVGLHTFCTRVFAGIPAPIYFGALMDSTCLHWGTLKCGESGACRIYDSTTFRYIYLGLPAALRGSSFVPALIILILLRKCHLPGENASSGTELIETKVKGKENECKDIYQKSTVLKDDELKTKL
Protocol: HEK293 cells are cultured and seeded at ~60% confluency in 24-well plates and are transiently transfected with 250 ng of a candidate transporter and 1 μL transfection reagent (JetPRIME). After 2 days, cells are washed and novel fluorescent probes at different concentrations are added to the transport medium and incubated at 37° C., for at least 30 minutes. To terminate the transport, cells are washed with PBS and fixed with 4% paraformaldehyde. The colocalization of probe uptake and cells expressing the transporters is investigated by immunostaining the transporter which has a fused FLAG tag, using anti-FLAG 488. Before confocal imaging, nuclei are labeled with Hoechst 33342 and cells are mounted and imaged on a Leica SP8 confocal microscope.
For in vitro experiments, HEK293 cells were cultured and seeded in 24-well plates, reaching approximately 60% confluency. For transient transfection, 250 ng of a candidate transporter plasmid and 1 μL of transfection reagent (JetPRIME) were added to the cells. After a 2-day incubation period, the cells were washed, and novel fluorescent probes were introduced into the transport medium at various concentrations. The cells were then incubated at 37° C., for a minimum of 30 minutes to allow for uptake. To stop the transport process, the cells were washed with PBS and fixed using 4% paraformaldehyde. Immunostaining of the transporter, which was fused with a FLAG tag, was performed using an anti-FLAG 488 antibody. Before confocal imaging, the cell nuclei were labeled with Hoechst 33342. Finally, the cells were mounted and imaged using a Leica SP8 confocal microscope.

SLCO1A2 [2] = target: T1, SLCO1A2; assay: Uptake by cells ectopically expressing SLCO1A2 (in utero electroporation or AAV8) in live mice; assay type: in vivo, mouse; design: P2A:EGFP (AAV8 construct only; EGFP is separated at P2A) (C, cleaved yes); FLAG (in utero electroporation plasmid only); host or cells: cortical neurons of live mice (AAV8 subarachnoid infusion or in utero electroporation); conditions: topical cortical administration (50 μM where stated)
Protocol: IUE is performed at E14 or E15 as previously done. Briefly, timed pregnant mice are anaesthetized with ketamine/xylazine. The abdominal region is shaved, sterilized and a 3 cm midline incision is made in the skin and abdominal muscle. The uterine horns are exposed, and the lateral ventricle of each embryo is pressure injected (Picospritzer II, General Valve) with plasmid DNA (~[…] volume per embryo) at a concentration of […] followed by electroporation with tweezertrodes (50 V, 4-50 ms pulses with I s pulse interval. BTX Harvard Apparatus). The embryos are placed back in the mother womb, and the muscle and skin are sutured. Electroporated pups are aged to postnatal day 30. Imaging is performed through a craniotomy over the transfected hemisphere following dye labeling.
The Adeno-associated virus (AAV) for expression of SLCO1A2 was custom-made (VectorBuilders). Briefly, The AAV8 virus carrying the pAAV-CAG>hSLCO1A2:P2A:EGFP construct was produced by cloning the hSLCO1A2 gene variant downstream of the CAG promoter in the pAAV8 expression vector. A P2A sequence was inserted to link the hSLCO1A2 gene with the EGFP coding sequence. The constructed vector was transfected into HEK293 cells, and the virus produced was harvested and ultra-purified for a final titer >10^13 GC/mL. AAV virus were injected into the mouse subarachnoid space using a previously described method. Briefly, mice were anesthetized with ketamine-xylazine. A skull window, approximately 1 mm in diameter, was created using a high-speed drill at coordinates 6 mm anteroposterior and 3 mm mediolateral from bregma. Subsequently, a 30-gauge needle was carefully used to lift a small piece of thinned skull, exposing the underlying dura. The stock solutions of AAV were diluted in fresh sterile phosphate-buffered saline (PBS) solution (1:20, v/v) at room temperature, then kept on ice and adjusted to a titer of 10^12 GC/mL. The AAV solutions were loaded into a Tygon tube, connected to a polypropylene tip with an outer diameter of 70 μm, which was further attached to a programmable syringe pump with a Hamilton syringe. […]

## O=S(=O)([O-])c1cc(S(=O)(=O)O)ccc1C1=c2cc3c4c(c2Oc2cc(Br)ccc21)CCC[N+]=4CCC3 [Compound 1, 2-(12-bromo-1,2,3,5,6,7-hexahydrochromeno[2,3-f]pyrido[3,2,1-ij]quinolin-4-ium-9-yl)-5-sulfobenzenesulfonate]
SLCO1A2 [1]; concentration not given
  uptake in SLCO1A2 transfected HEK293 cells: only those cells expressing the carrier SLCO1A2 (as evidenced by anti-FLAG labeling-green) take up compound 1
SLCO1A2 [2]
  uptake by neurons ectopically expressing SLCO1A2: only those cells that express SLCO1A2 or SLCO1A4 (as evidenced by the GFP fluorescence (green)) take up compound 1

## COc1cc2c(c(OC)c1OC)-c1ccc(OC)c(=O)cc1C(NS(=O)(=O)c1ccc(-c3c4ccc(N(C)C)cc4[o+]c4cc(N(C)C)ccc34)c(S(=O)(=O)[O-])c1)CC2 (centres unmarked) [Compound 47, 2-(3,6-bis(dimethylamino)xanthylium-9-yl)-5-(N-(1,2,3,10-tetramethoxy-9-oxo-5,6,7,9-tetrahydrobenzo[a]heptalen-7-yl)sulfamoyl)benzenesulfonate]
SLCO1A2 [1]; 10 μM
  uptake in SLCO1A2 transfected HEK293 cells: robust and selective uptake
SLCO1A2 [2]; listed as Colchicine-eEDITS
  uptake by neurons ectopically expressing SLCO1A2: robust uptake by cells expressing SLCO1A2
SLCO1A2 [2]; listed as Colchicine-eEDiTS
  uptake by neurons ectopically expressing SLCO1A2: marked uptake
